# Test system: L1210
# Experiment: Cytotoxicity against mouse L1210 cells
# Assay type: functional, cell-based
row,Structure (SMILES),IC50
1,CC(C)C[C@@]1(O)C[C@@H](C)[C@H]2[C@@H]1C(=O)[C@H]1[C@@H]3[C@@H](O)[C@H](O)[C@H]4C[C@H](O)[C@@H](O)C[C@]4(C)[C@H]3CC[C@]21C,4.1 µg/mL
2,CC(C)C[C@@]1(O)C[C@@H](C)[C@H]2[C@@H]1C(=O)[C@H]1[C@@H]3[C@@H](O)[C@H](O)[C@H]4C[C@H](O)[C@@H](O)[C@@H](O)[C@]4(C)[C@H]3CC[C@]21C,> 10 µg/mL
3,CC(C)C[C@@]1(O)C[C@@H](C)[C@H]2[C@@H]1C(=O)[C@H]1[C@@H]3[C@@H](O)[C@H](O)[C@H]4C[C@H](O)CC[C@]4(C)[C@H]3CC[C@]21C,4 µg/mL
